Earlier results in US12478643B2, “Compositions and methods for the prevention or treatment of rheumatoid arthritis” (Rhode Island Hospital, priority 2021, dated 2025).
Like-named read-outs stand apart in the source and are kept apart here.

Tests used:
SHIP1 [1] = molecular target: T1, SHIP1 (Homo sapiens, UniProt Q92835)
T1 sequence (Q92835 1-1189): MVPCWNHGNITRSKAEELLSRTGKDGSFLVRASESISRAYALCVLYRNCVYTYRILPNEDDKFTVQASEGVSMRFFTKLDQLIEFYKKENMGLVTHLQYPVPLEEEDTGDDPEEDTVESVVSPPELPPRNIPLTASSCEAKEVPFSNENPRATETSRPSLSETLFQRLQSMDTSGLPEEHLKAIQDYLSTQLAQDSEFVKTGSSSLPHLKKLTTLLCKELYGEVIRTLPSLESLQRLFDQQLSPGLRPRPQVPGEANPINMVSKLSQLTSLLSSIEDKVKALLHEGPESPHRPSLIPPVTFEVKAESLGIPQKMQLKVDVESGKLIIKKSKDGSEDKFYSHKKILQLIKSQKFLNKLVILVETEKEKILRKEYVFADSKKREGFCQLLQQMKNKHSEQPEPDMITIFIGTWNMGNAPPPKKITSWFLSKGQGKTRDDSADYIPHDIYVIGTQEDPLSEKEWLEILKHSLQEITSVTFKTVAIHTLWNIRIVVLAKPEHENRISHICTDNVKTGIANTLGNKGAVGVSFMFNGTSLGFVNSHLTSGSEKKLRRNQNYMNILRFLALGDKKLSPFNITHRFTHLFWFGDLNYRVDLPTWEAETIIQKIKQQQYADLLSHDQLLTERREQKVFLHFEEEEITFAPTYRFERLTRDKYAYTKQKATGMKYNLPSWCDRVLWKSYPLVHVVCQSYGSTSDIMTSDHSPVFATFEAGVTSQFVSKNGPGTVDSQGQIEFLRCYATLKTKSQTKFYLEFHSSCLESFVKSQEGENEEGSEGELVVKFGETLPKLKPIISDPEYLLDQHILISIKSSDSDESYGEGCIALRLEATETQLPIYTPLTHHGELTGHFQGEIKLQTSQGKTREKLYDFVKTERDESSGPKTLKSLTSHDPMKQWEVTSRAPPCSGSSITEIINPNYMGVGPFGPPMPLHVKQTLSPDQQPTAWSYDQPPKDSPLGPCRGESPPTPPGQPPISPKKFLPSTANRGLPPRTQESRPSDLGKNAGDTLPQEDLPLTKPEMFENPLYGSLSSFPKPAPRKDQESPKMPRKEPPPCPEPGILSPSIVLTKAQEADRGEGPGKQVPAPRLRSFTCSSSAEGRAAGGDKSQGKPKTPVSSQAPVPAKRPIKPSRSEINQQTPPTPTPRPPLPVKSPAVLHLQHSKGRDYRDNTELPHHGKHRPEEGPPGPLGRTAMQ

SHIP2 = molecular target: T2, SHIP2 (Homo sapiens, UniProt O15357); conditions: at 100 μM; cited from earlier work
T2 sequence (O15357 1-1258): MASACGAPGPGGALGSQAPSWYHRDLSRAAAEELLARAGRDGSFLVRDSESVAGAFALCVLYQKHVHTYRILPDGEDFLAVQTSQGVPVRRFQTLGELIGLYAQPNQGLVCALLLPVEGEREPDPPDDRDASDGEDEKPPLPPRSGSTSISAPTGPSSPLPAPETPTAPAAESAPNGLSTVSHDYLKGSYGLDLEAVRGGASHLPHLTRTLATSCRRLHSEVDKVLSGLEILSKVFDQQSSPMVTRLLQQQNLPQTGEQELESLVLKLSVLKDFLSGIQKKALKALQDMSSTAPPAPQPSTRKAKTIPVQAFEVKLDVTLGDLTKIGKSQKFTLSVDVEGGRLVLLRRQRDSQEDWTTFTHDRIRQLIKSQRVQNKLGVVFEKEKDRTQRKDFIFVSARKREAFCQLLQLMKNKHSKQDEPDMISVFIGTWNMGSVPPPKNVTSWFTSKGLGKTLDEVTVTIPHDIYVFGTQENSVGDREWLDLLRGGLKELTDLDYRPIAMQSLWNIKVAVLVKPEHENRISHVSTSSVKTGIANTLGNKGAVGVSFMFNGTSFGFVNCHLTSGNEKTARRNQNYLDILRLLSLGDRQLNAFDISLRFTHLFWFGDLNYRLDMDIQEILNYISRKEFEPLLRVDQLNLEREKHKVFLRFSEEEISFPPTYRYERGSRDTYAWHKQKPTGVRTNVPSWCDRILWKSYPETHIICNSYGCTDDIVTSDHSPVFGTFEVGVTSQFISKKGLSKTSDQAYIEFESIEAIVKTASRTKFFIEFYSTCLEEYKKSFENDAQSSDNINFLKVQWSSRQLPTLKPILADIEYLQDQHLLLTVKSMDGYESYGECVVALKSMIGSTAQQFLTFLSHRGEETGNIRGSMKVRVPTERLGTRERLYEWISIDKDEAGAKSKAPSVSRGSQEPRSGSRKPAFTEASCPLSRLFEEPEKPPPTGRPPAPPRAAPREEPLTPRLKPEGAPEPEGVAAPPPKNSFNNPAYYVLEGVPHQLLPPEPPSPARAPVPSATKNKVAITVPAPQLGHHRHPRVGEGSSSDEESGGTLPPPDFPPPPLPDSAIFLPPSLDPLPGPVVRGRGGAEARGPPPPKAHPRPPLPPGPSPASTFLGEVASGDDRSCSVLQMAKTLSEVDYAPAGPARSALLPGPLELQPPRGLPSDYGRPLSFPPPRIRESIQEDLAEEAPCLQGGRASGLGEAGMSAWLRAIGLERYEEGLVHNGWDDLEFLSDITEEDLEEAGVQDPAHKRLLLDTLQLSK

SHIP1 [2] = molecular target: T1, SHIP1; conditions: at 100 μM; cited from earlier work
[3] = Table 1; read-out: IC50 SHIP1; cited from earlier work

Row | Structure (SMILES) | IC50 (SHIP1 [1]; [3]) [µM] | inhibition of SHIP2 (SHIP2) | inhibition of SHIP1 activity (SHIP1 [2]) | also measured
1 | CC12CCCC1C1CCC3CC(N)C(N)CC3(C)C1CC2 (centres unmarked) [Compound K161] | 6 | – | – | –
2 | C[C@H](NC(=O)c1sccc1OCc1ccc(Cl)cc1)c1ccccc1 [AS194490] | 13 | – | – | –
3 | CSc1ccc2c(c1)c(CCN)c(C)n2Cc1ccccc1Cl [Compound 28] | – | 50% | approximately 70% | –
4 | CC12CCCC1C1CCC3CC(N)CCC3(C)C1CC2 (centres unmarked) [Compound K185] | 18 | – | – | –
5 | O[C@H](c1cc(-c2ccccc2)nc2c1ccc1ccccc12)[C@@H]1CCCCN1 [Compound 26] | – | approximately 60% | completely inhibited | –
6 | O[C@H](c1cc(C2C3CC4CC(C3)CC2C4)nc2c(Cl)cc(Cl)cc12)[C@@H]1CCCCN1 (some centres unmarked) [Compound 27] | – | 90% | completely inhibited | –
7 | CC12CCCC1C1CCC3CC(N)CCC3(C)C1CC2 (centres unmarked) [Compound K118] | – | – | – | IC50 (SHIP1 [1]; read-out: IC50 SHIP1; Table 1; cited from earlier work): 16 µM
8 | CC[C@H]1CC[C@H]2[C@@H]3C[C@@H](O)[C@@]4(O)C[C@H](N)CC[C@]4(C)[C@H]3CC[C@]12C [Compound K116] | 1.5 to 6 | – | – | –
